Key:
[1] = target: T1, Histone-lysine N-methyltransferase SMYD3 (Homo sapiens) (UniProt Q9H7B4); test: Selectivity interaction (Methyltransferase screen (radiometric assays, panel of 8 PRMTs, 21 protein lysine methyltransferases, 3 DNA methyltransferases, and one RNA methyltransferase)) EUB0000272b SMYD3
T1 sequence (whole entry): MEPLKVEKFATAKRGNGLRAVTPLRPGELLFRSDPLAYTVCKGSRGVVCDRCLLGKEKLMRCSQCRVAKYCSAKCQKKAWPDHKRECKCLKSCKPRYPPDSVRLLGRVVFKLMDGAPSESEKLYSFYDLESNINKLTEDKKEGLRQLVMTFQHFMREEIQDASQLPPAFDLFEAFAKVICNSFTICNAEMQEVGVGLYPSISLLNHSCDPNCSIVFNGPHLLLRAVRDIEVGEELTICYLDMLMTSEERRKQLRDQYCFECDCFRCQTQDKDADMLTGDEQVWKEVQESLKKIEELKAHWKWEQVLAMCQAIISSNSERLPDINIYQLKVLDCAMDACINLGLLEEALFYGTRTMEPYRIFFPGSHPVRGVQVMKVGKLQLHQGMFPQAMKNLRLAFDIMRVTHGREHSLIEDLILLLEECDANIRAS

[2] = target: Calcium/calmodulin-dependent protein kinase type II subunit beta (Homo sapiens) (UniProt Q13554); test: Selectivity interaction (KinomeScan (DiscoverX)) EUB0000666a CAMK2B; details: at 10 µM
Chain of Calcium/calmodulin-dependent protein kinase type II subunit beta (Homo sapiens) (Q13554 whole entry): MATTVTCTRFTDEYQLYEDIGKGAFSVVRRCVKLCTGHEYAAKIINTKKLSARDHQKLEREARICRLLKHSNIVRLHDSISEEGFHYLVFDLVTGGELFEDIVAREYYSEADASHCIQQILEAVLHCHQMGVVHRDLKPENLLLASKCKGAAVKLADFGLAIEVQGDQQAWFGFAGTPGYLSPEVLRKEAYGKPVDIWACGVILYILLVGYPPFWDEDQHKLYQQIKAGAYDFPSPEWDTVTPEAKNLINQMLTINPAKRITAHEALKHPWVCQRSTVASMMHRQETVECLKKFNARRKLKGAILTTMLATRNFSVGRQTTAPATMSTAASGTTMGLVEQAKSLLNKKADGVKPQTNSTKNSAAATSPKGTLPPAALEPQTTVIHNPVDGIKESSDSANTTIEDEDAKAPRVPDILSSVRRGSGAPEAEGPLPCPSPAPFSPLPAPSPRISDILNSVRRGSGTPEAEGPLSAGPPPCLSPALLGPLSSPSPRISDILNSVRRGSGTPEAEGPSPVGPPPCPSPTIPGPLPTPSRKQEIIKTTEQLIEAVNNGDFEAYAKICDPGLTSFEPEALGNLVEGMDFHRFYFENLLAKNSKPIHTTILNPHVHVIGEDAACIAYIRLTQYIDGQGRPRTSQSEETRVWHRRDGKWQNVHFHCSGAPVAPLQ

[3] = target: Tyrosine-protein kinase HCK (Homo sapiens) (UniProt P08631); test: Selectivity interaction (KinaseProfiler screening (Millipore)) EUB0000601a HCK; details: at 3 µM
Chain of Tyrosine-protein kinase HCK (Homo sapiens) (P08631 2-526 limits assumed): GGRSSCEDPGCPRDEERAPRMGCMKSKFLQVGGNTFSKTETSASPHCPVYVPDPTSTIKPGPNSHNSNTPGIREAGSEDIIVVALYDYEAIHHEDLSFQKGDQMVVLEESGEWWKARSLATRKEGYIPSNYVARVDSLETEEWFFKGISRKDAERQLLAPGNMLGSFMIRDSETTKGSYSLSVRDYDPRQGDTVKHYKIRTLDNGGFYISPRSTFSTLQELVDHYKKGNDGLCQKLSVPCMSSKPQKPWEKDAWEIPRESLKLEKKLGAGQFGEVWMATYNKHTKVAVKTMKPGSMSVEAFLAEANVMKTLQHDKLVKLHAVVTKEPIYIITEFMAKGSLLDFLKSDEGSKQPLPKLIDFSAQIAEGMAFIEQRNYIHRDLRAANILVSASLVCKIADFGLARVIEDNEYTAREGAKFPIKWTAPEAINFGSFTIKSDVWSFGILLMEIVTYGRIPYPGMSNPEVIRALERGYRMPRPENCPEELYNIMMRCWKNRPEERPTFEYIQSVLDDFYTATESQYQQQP

[4] = target: Tyrosine-protein kinase CSK (Homo sapiens) (UniProt P41240); test: Selectivity interaction (Kinase screening (Upstate/Millipore)) EUB0000604a CSK
Chain of Tyrosine-protein kinase CSK (Homo sapiens) (P41240 2-450 limits assumed): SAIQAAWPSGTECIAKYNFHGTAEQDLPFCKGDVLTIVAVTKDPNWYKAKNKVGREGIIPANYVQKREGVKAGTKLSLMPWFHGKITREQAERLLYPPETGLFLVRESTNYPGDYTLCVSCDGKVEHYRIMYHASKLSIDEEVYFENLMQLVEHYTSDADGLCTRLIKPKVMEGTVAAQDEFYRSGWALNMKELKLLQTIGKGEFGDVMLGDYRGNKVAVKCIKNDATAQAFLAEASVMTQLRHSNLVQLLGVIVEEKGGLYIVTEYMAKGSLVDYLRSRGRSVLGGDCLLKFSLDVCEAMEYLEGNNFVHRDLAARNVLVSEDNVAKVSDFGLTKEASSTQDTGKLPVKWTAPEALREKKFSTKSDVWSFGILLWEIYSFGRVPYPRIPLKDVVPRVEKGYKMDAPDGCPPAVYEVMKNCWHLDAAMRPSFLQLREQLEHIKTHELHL

[5] = target: Serine/threonine-protein kinase PAK 3 (Homo sapiens) (UniProt O75914); test: Selectivity interaction (KinomeScan (DiscoverX)) EUB0000655a PAK3; details: at 10 µM
Chain of Serine/threonine-protein kinase PAK 3 (Homo sapiens) (O75914 whole entry, looked up): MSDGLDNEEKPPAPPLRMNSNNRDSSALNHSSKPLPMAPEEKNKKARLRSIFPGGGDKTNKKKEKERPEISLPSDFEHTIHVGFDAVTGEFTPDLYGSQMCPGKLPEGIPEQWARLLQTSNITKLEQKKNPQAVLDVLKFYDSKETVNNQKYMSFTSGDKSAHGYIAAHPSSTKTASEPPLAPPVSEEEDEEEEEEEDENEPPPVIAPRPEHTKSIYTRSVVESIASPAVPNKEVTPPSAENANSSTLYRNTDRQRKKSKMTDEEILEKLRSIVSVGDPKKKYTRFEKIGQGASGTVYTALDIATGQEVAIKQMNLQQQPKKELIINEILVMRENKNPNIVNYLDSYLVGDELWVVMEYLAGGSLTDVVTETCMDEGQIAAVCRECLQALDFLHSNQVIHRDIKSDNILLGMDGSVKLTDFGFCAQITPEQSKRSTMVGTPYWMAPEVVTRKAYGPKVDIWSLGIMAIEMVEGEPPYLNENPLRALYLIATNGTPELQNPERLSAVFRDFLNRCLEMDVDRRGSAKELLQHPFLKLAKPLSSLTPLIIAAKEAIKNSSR

[6] = target: T2, Dual specificity mitogen-activated protein kinase kinase 5 (Homo sapiens) (UniProt Q13163); test: Selectivity interaction (KinomeScan (DiscoverX)) EUB0000045b MAP2K5
T2 sequence (whole entry): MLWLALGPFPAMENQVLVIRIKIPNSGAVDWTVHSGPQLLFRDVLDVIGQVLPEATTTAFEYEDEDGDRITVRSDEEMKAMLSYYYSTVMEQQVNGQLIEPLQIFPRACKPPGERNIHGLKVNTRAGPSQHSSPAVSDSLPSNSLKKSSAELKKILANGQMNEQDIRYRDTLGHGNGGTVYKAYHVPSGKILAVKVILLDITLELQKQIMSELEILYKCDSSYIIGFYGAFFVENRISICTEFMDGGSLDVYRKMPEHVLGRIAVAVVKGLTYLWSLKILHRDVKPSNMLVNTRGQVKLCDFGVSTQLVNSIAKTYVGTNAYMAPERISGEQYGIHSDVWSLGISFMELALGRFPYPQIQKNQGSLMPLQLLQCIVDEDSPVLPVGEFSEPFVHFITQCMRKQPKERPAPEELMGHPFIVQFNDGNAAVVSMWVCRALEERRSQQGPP

[7] = target: Ribosomal protein S6 kinase alpha-5 (Homo sapiens) (UniProt O75582); test: Selectivity interaction (KinomeScan (DiscoverX)) EUB0000045b RPS6KA5
Chain of Ribosomal protein S6 kinase alpha-5 (Homo sapiens) (O75582 whole entry, looked up): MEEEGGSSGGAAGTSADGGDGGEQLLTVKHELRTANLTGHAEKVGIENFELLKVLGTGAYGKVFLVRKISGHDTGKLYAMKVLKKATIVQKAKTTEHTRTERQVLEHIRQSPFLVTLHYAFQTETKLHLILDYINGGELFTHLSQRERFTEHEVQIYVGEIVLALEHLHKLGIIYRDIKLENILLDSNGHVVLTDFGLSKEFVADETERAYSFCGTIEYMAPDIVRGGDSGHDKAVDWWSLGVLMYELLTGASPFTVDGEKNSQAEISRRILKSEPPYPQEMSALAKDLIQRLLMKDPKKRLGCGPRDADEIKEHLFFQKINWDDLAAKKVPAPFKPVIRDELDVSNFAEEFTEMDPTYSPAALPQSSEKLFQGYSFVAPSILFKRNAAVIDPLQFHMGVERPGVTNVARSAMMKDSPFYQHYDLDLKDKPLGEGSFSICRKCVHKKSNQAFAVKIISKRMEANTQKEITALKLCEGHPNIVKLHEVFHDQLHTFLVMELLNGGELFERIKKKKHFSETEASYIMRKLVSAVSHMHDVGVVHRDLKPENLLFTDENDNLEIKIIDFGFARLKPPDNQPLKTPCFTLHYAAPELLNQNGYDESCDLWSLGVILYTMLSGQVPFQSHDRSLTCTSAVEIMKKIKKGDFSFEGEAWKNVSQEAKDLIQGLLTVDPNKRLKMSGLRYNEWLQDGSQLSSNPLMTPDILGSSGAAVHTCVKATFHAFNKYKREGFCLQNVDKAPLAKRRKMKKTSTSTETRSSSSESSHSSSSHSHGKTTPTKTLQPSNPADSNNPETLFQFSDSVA

[8] = target: T3, Mitogen-activated protein kinase kinase kinase kinase 2 (Homo sapiens) (UniProt Q12851); test: Selectivity interaction (ActivX KiNativ screen (ex vivo kinase selectivity in human PBMCs)) EUB0001619a MAP4K2; assay type: cell-based; details: PBMC, at 1 µM
T3 sequence (whole entry): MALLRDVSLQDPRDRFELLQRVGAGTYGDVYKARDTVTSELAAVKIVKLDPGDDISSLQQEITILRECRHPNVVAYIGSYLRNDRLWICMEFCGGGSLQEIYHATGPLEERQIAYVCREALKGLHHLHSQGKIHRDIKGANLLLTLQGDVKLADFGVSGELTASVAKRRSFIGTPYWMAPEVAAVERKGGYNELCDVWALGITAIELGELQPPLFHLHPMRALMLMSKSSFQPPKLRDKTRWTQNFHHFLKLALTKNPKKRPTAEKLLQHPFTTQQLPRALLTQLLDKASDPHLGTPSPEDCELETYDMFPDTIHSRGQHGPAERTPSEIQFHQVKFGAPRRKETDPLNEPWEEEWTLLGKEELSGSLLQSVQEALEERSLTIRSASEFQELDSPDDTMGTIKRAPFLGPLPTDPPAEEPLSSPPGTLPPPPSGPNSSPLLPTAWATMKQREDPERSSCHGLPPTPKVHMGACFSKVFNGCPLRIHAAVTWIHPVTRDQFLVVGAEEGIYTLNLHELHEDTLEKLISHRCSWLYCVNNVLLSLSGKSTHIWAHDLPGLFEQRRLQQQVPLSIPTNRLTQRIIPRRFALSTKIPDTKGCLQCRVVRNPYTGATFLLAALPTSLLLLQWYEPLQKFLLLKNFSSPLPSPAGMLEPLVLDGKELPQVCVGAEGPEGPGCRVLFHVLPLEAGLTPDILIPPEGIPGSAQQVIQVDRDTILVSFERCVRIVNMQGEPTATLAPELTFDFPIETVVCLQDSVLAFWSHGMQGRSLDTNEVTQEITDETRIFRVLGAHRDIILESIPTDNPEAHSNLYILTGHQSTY

Cc1cc(C)cc([C@H]2c3cc(C)ccc3NC(=O)CN2C(=O)c2ccc(Br)s2)c1
% of activity ([1]; at 1 µM): 97.3%
% of activity ([1]; at 10 µM): 102%

O=C(NOC[C@H](O)CO)c1ccc(F)c(F)c1Nc1ccc(I)cc1F
% of control [2]: 100%

CCc1cc(Nc2nccc(-c3c(-c4ccc(OC)c(C(=O)Nc5c(F)cccc5F)c4)nc4ccccn34)n2)c(OC)cc1N1CCC(N2CCN(S(C)(=O)=O)CC2)CC1
% of inhibition [3]: 81%

Cc1cnc(Nc2ccc(F)cc2Cl)nc1-c1c[nH]c(C(=O)N[C@H](CO)c2cccc(Cl)c2)c1
% of inhibition [4]: 0%

CN(C)CCOc1ccc(-c2nc(-c3ccncc3)c(-c3ccc4c(c3)CC/C4=N\O)[nH]2)cc1
% of control [5]: 72%

C=CC(=O)Nc1cc(-n2c(=O)ccc3cnc4ccc(-c5ccc(NS(C)(=O)=O)cc5)cc4c32)ccc1C
% of control ([6]; at 1 µM): 100%
% of control ([6]; at 10 µM): 64%
% of control ([7]; at 1 µM): 100%
% of control ([7]; at 10 µM): 100%

N#Cc1cccc(-c2c[nH]c3ncnc(N4CCOCC4)c23)c1
% of inhibition [8]: 31%
